Here are results for 28 compounds from patent publication US20140057895A1, “INDAZOLE- AND PYRROLOPYRIDINE-DERIVATIVE AND PHARMACEUTICAL USE THEREOF” (priority 2011, published 2014).

Structures can show the parent of a compound that is named as a salt. Bounds are passed on as bounds.

The target in the assay is T1, 5-HT4 receptor (Cavia porcellus, UniProt O70528).
T1 construct: striatum was isolated which was cryopreserved at −80° C. until use; from tissue; host or cells: guinea pig (Slc-Hartley) striatum membranes
T1 sequence (O70528 whole entry): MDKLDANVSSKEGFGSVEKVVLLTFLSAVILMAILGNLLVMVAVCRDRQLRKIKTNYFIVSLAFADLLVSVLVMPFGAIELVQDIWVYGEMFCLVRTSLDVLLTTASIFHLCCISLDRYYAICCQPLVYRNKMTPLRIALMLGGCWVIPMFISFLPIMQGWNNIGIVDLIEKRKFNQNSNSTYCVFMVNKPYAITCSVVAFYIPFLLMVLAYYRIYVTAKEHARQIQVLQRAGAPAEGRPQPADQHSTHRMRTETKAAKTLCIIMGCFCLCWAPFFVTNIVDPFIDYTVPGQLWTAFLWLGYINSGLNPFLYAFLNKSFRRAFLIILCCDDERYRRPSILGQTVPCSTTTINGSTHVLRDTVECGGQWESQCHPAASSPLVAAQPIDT
Kind of assay: Test Example 3: Guinea pig 5-HT4 receptor binding assay, [3H]-GR113808, striatum membranes (Table 98). Conditions: Guinea pig 5-HT4 receptor binding assay, [3H]-GR113808, striatum membranes; mean value of each group; read-out: IC50. How it is done:
The guinea pig 5-HT4 receptor binding assay and preparations of receptor membrane preparations herein were carried out according to a method of Grossman et al. [see, British J. Pharmacol., (1993) 109, 618].
Slc-Hartley guinea pigs (body weight 300 g to 400 g) were decapitated to remove brain rapidly, and striatum was isolated which was cryopreserved at −80° C. until use. To the obtained tissues were added fifteen fold of Hepes buffer (50 mM, pH 7.4, 4° C.), and the mixture was homogenized by Teflon (trademark) homogenizer and centrifuged at 48,000×g (4° C.) for 15 minutes. To the resulting precipitate was added Hepes buffer (1 ml) to 30 mg by wet weight of tissues, and the mixture was suspended to give receptor membrane preparations.
To an assay tube were added 0.1 nM [^3H]-GR113808 {chemical name: [1-[2-(methylsulfonylamino) ethyl]-4-piperidinyl]methyl 1-methylindole-3-carboxylate}, receptor membrane preparations, and Hepes buffer (50 mM, pH 7.4, 4° C., 1 ml) containing test compounds or 30 μM serotonin; and the mixture was incubated at 37° C. for 30 minutes. On quenching the reaction, the mixture was rapidly filtered on whatman GF/B filter, which was presoaked in 0.1% polyethyleneimine for 1 hour, by using Brandel cell Harvester, and washed with ice-cooled 50 mM Tris-HCl (pH 7.7, 4 ml) three times. To the filter after filtration was added a liquid scintillator (Ecoscint), and then a radioactivity was determined by a liquid scintillation counter.
50% Inhibition concentrations (IC50) were determined from inhibition rates of test compounds to specific bindings which were obtained by subtracting nonspecific bindings from total binding amounts of [^3H]-GR113808. […]
The IC50 is the concentration needed to halve the response being measured. As for `CCc1nn(-c2noc(C3CCN(C4CCC4)CC3)n2)c2c(F)c(F)ccc12` [Example 446, 1-[5-(1-cyclobutylpiperidin-4-yl)-1,.2,4-oxadiazol-3-yl]-3-ethyl-6,7-difluoro-1H-indazole-trifluoroacetate], the IC50 was below 20 nM. For `CCCCN1CCC(c2cnc(-n3nc(C(C)C)c4cccc(F)c43)[nH]2)CC1` [Example 562, 1-[5-(1-butylpiperidin-4-yl)-1H-imidazol-2-yl]-7-fluoro-3-(propan-2-yl)-1H-indazole] the value was 478 nM; for `CC(=O)N1CCC(N2CCC(c3nc(-n4nc(C(F)(F)F)c5cccc(F)c54)no3)CC2)CC1` [Example 406, 1-(4-{3-[7-fluoro-3-(trifluoromethyl)-1H-indazol-1-yl]-1,2,4-oxadiazol-5-yl}-1,4′-bipiperidin-1′-yl)ethanone], 68.7 nM.

Turning to `CC(=O)N1CCC(N2CCC(c3nc(-n4nc(C(C)(C)O)c5cccc(F)c54)no3)CC2)CC1` [Example 403, 1-(4-{3-[7-fluoro-3-(2-hydroxypropan-2-yl)-1H-indazol-1-yl]-1,2,4-oxadiazol-5-yl}-1,4′-bipiperidin-1′-yl)ethanone], the IC50 was 36.1 nM.

Regarding `CC(C)c1nn(-c2noc(C3CCN(CC4CN(C(=O)N(C)C)CCO4)CC3)n2)c2c(F)cccc12` (stereo not shown) [Example 485, 2-[(4-{3-[7-fluoro-3-(propan-2-yl)-1H-indazol-1-yl]-1,2,4-oxadiazol-5-yl}piperidin-1-yl)methyl]-N,N-dimethylmorpholine-4-carboxamide], the IC50 was 21.2 nM.

For `CC(C)c1nn(-c2noc(C3CCN(CC4CN(S(C)(=O)=O)CCO4)CC3)n2)c2c(F)cccc12` (stereo not shown) [Example 486, 7-fluoro-1-[5-(1-{[4-(methylsulfonyl)morpholin-2-yl]methyl}piperidin-4-yl)-1,2,4-oxadiazol-3-yl]-3-(propan-2-yl)-1H-indazole], the IC50 is below 20 nM.

On to `CC(C)c1nn(-c2noc(C3CCN(C4CCN(C(=O)CO)CC4)CC3)n2)c2c(F)c(O)ccc12` [Example 552, 1-(4-{3-[7-fluoro-6-hydroxy-3-(propan-2-yl)-1H-indazol-1-yl]-1,2,4-oxadiazol-5-yl}-1,4′-bipiperidin-1′-yl)-2-hydroxyethanone], for which the half-inhibitory concentration (IC50) came to 179 nM. For `CC(=O)N1CCC(N2CCC(c3nc(-n4nc(C(C)C)c5ccc(Cl)cc54)no3)CC2)CC1` [Example 412, 1-(4-{3-[6-chloro-3-(propan-2-yl)-1H-indazol-1-yl]-1,2,4-oxadiazol-5-yl}-1,4′-bipiperidin-1′-yl)ethanone] the value was 140 nM. For `CCCCN1CCC(c2ncc(-n3nc(C(C)C)c4cccc(F)c43)s2)CC1` [Example 564, 1-[2-(1-butylpiperidin-4-yl)-1,3-thiazol-5-yl]-7-fluoro-3-(propan-2-yl)-1H-indazole] the value was 653 nM; for `COc1cccc2c(C(C)C)nn(-c3noc(C4CCN(C5CCC5)CC4)n3)c12` [Example 440, 1-[5-(1-cyclobutylpiperidin-4-yl)-1,2,4-oxadiazol-3-yl]-7-methoxy-3-(propan-2-yl)-1H-indazole], 104 nM. For `CC(=O)N1CCC(CN2CCC(c3nc(-n4nc(C(C)C)c5ccc(C)cc54)no3)CC2)CC1` [Example 479, 1-{4-[(4-{3-[6-methyl-3-(propan-2-yl)-1H-indazol-1-yl]-1,2,4-oxadiazol-5-yl}piperidin-1-yl)methyl]piperidin-1-yl}ethanone trifluoroacetate] the value was 94.6 nM. Turning to `CC(C)c1nn(-c2noc(C3CCN(C4CCCC4)CC3)n2)c2c(F)c(F)ccc12` [Example 452, 1-[5-(1-cyclopentylpiperidin-4-yl)-1,2,4-oxadiazol-3-yl]-6,7-difluoro-3-(propan-2-yl)-1H-indazole trifluoroacetate], the IC50 is below 20 nM. For `CCc1nn(-c2noc(C3CCN(CC4CCN(C(=O)OC)CC4)CC3)n2)c2c(F)c(F)ccc12` [Example 476, methyl 4-({4-[3-(3-ethyl-6,7-difluoro-1H-indazol-1-yl)-1,2,4-oxadiazol-5-yl]piperidin-1-yl}methyl)piperidin-1-carboxylate trifluoroacetate] the value was below 20 nM.

For `COCC(=O)N1CCC(N2CCC(c3nc(-n4nc(C(C)C)c5ccc(F)c(F)c54)no3)CC2)CC1` [Example 465, 1-(4-{3-[6,7-difluoro-3-(propan-2-yl)-1H-indazol-1-yl]-1,2,4-oxadiazol-5-yl}-1,4′-bipiperidin-1′-yl)-2-methoxyethanone trifluoroacetate], the IC50 is below 20 nM. The result for `CC(=O)N1CC(CN2CCC(c3nc(-n4nc(C(C)C)c5ccc(C)cc54)no3)CC2)C1` [Example 471, 1-{3-[(4-{3-[6-methyl-3-(propan-2-yl)-1H-indazol-1-yl]-1,2,4-oxadiazol-5-yl}piperidin-1-yl)methyl]azetidin-1-yl}ethanone trifluoroacetate] reads 173 nM; that for `Cc1ccc2c(c1)c(C(C)C)nn2-c1noc(C2CCN(C3CCC3)CC2)n1` [Example 427, 1-[5-(1-cyclobutylpiperidin-4-yl)-1,2,4-oxadiazol-3-yl]-5-methyl-3-(propan-2-yl}-1H-indazole], 339 nM. On to `CC(=O)N1CCC(N2CCC(c3nc(-n4nc(C(C)C)c5cc(C)ccc54)no3)CC2)CC1` [Example 410, 1-(4-{3-[5-methyl-3-(propan-2-yl)-1H-indazol-1-yl]-1,2,4-oxadiazol-5-yl}-1,4′-bipiperidin-1′-yl)ethanone], for which the IC50 came to 323 nM. For `CC(=O)N1CCC(N2CCC(Cc3nc(-n4nc(C(C)C)c5cccc(F)c54)no3)CC2)CC1` [Example 417, 1-[4-({3-[7-fluoro-3-(propan-2-yl)-1H-indazol-1-yl]-1,2,4-oxadiazol-5-yl}methyl)-1,4′-bipiperidin-1′-yl]ethanone] the value was 36 nM; for `CCc1nn(-c2noc(C3CCN(C4CCC4)CC3)n2)c2cc(C)ccc12` [Example 434, 1-[5-(1-cyclobutylpiperidin-4-yl)-1,2,4-oxadiazol-3-yl]-3-ethyl-6-methyl-1H-indazole trifluoroacetate], 20.8 nM.

Regarding `CC(C)c1nn(-c2noc(C3CCN(C4CCOCC4)C3)n2)c2c(F)cccc12` (stereo not shown) [Example 456, 7-fluoro-3-(propan-2-yl)-1-{5-[1-(tetrahydro-2H-pyran-4-yl)pyrrolidin-3-yl]-1,2,4-oxadiazol-3-yl}-1H-indazole], the IC50 was below 20 nM. The result for `CC(C)c1nn(-c2noc(C3CCN(C4CCN(C(=O)C(=O)O)CC4)CC3)n2)c2c(F)cccc12` [Example 557, potassium (4-{3-[7-fluoro-3-(propan-2-yl)-1H-indazol-1-yl]-1,2,4-oxadiazol-5-yl}-1,4′-bipiperidin-1′-yl)(oxo)acetate] reads 127 nM. The result for `CC(=O)N1CCC(N2CCC(c3nc(-n4nc(C(C)C)c5cc(Cl)ccc54)no3)CC2)CC1` [Example 409, 1-(4-{3-[5-chloro-3-(propan-2-yl)-1H-indazol-1-yl]-1,2,4-oxadiazol-5-yl}-1,4′-bipiperidin-1′-yl)ethanone] reads 383 nM; that for `CC(=O)N1CCC(N2CCC(c3nc(-n4nc(C(C)C)c5ccc(O)c(F)c54)no3)CC2)CC1` [Example 554, 1-(4-{3-[7-fluoro-6-hydroxy-3-(propan-2-yl)-1H-indazol-1-yl]-1,2,4-oxadiazol-5-yl}-1,4′-bipiperidin-1′-yl)ethanone], 190 nM. The result for `COc1cccc2c(C(C)C)nn(-c3noc(C4CCN(C5CCN(C(C)=O)CC5)CC4)n3)c12` [Example 414, 1-(4-{3-[7-methoxy-3-(propan-2-yl)-1H-indazol-1-yl]-1,2,4-oxadiazol-5-yl}-1,4′-bipiperidin-1′-yl)ethanone] reads 86.9 nM; that for `CC(=O)N1CCC(N2CC[C@H](Cc3nc(-n4nc(C(C)C)c5cccc(F)c54)no3)C2)CC1` [Example 495, 1-{4-[(3R)-3-({3-[7-fluoro-3-(propan-2-yl)-1H-indazol-1-yl]-1,2,4-oxadiazol-5-yl}methyl)pyrrolidin-1-yl]piperidin-1-yl}ethanone], below 20 nM. `CC(C)c1nn(-c2noc(C3CCN(CCCOc4ccccc4)CC3)n2)c2c(F)cccc12` [Example 395, 7-fluoro-1-{5-[1-(3-phenoxypropyl)piperidin-4-yl]-1,2,4-oxadiazol-3-yl}-3-(propan-2-yl)-1H-indazole]: the IC50 was 26.9 nM. The result for `Cc1ccc2c(C(C)C)nn(-c3noc(C4CCN(C5CCC5)CC4)n3)c2c1` [Example 433, 1-[5-(1-cyclobutylpiperidin-4-yl)-1,2,4-oxadiazol-3-yl]-6-methyl-3-(propan-2-yl)-1H-indazole] reads 65 nM. For the compound `CC(C)(C)c1nn(-c2noc(C3CCN(C4CCN(C(=O)CO)CC4)CC3)n2)c2ccccc12` [Example 522, 1-{4-[3-(3-tert-butyl-1H-indazol-1-yl)-1,2,4-oxadiazol-5-yl]-1,4′-bipiperidin-1′-yl}-2-hydroxyethanone], the IC50 is 222 nM.
